Consider three compounds from publication PMC7998669, “7-(2-Anilinopyrimidin-4-yl)-1-benzazepin-2-ones Designed by a “Cut and Glue” Strategy Are Dual Aurora A/VEGF-R Kinase Inhibitors” (Molecules, 2021).

Structures are written as SMILES. Values after ≈ are worked out from the molar mass of the structure shown.

The nature of data set [1]: kinetic solubility by nephelometry. The class given is physicochemical. Conditions: phosphate buffer, 25 °C, pH 7.4, aqueous buffer, kinetic from dmso stock, phosphate buffer pH 7.4, 1% DMSO, mean of two measurements, range in brackets. Here is the method:
The kinetic solubility of test compounds was determined by nephelometry. Dilution series of test compounds in DMSO with eight to ten different concentrations were prepared. The dilutions were pipetted (2 µL) into the cavities of a 96 well plate (CorningTM UV-transparent flat-bottom microtiter plate; Corning Incorporated, Kennebunk, ME, USA). A phosphate buffer solution pH 7.4 (198 µL) was added, so that the DMSO concentration in the measured solutions was 1%. Three wells were filled with DMSO and phosphate buffer pH 7.4 (2:198) and measured as blank values. The 96 well plate prepared in this way was measured with the NEPHELOstar® Plus nephelometer (BMG Labtech GmbH, Ortenberg, Germany, software: Omega 5.11) at a temperature of 25 °C. Previously, the plate was shaken at 500 rpm for 10 s and the laser intensity was set to 80%. The beam focus was set to 2.50 mm. If the test substance is completely soluble, only a scattering close to the blank value is detected. As soon as a critical concentration is reached in which the kinetic solubility of the test compound is exceeded, solid particles precipitate. Undissolved particles in the sample scatter the laser beam. The intensity of the scattered light is determined, which is proportional to the number of particles in the solution. The blank values were determined and subtracted from the measured values of the test compounds. By measuring different concentrations of the test substances, different intensities of the scattered light, indicated as RNU (relative nephelometric units), were determined. Kick off curves were obtained by plotting concentrations against the RNU values. The point of intersection of the horizontal and of the ascending part of the kick-off curve indicated the kinetic solubility concentration.

Another data set deals with 786-0. In words: NCI cancer cell line screen (sulforhodamin B). The class given is cell-based. Conditions: Homo sapiens; 786-0, Renal; 48 h; read-out: log10 GI50 (converted). Here is the method:
(§1) The new dual Aurora A/VEGF-R inhibitors 2e and 2n were selected by the National Cancer Institute for screening in its broad cancer cell line panel. The NCI in vitro assay is performed by incubation of cells with test compounds for 48 h and subsequent cell fixation with trichloroacetic acid. The pink dye sulforhodamin B is added, which binds to the proteins of the fixed cells. After washing and solubilizing the bound stain, the optical density is measured spectrophotometrically to determine the relative proliferation of treated and untreated cells.
(§2) Simultaneous inhibition of the Aurora A kinase and the VEGF-R2/3 receptor kinases may represent an interesting dual activity for the treatment of cancer. The National Cancer Institute selected the compounds 2e and 2n as representatives with particularly high inhibitory activity on the above kinases for testing in the IVCLS (in vitro cell line screening). In this screening, compounds are tested for antiproliferative activity on about 60 in vitro cultivated tumor cell lines. Based on this very broad screening on cell lines from nine tumor entities the general antiproliferative potency of compounds is determined. In addition, the bioinformatic tool COMPARE allowed one to draw conclusions on the molecular target of the compounds from the activity patterns on the different cell lines. Similar molecular mechanisms of action of two compounds are assumed if a Pearson correlation coefficient (PCC) of > 0.6 is calculated by COMPARE [52, 53]. […] The selectivity profile of the two compounds is not very pronounced given the overall very similar proliferation inhibition values across all cell lines. A COMPARE analysis determined a PCC = 0.61 for the patterns of test compounds 2e and 2n, which is consistent with an analogous mechanism of action. However, whether this mechanism is actually based on the inhibition of the inhibited Aurora kinases and VEGF receptor kinases cannot be deduced from these profiles.

In another data set the test system is LOX IMVI. In words: NCI cancer cell line screen (sulforhodamin B). Conditions: Homo sapiens, Melanoma, 48 h, read-out: log10 GI50 (converted). The class given is cell-based. Here is the method:
as §1, §2

The test system of another data set is IGROV1. In words: NCI cancer cell line screen (sulforhodamin B). In kind it is cell-based. Conditions: Homo sapiens, IGROV-1; IGROV1, Ovarian; 48 h; read-out: log10 GI50 (converted). Here is the method: as §1, §2
The subject of another data set is SN12C. The data set is described as follows: NCI cancer cell line screen (sulforhodamin B). The class given is cell-based. Conditions: Homo sapiens, Renal, 48 h, read-out: log10 GI50 (converted). The procedure: as §1, §2
For the next data set, the system named is PC-3. In words: NCI cancer cell line screen (sulforhodamin B). The class given is cell-based. Conditions: Homo sapiens; PC-3, Prostate; 48 h; read-out: log10 GI50 (converted). The procedure:
as §1, §2

The test system of the next data set is RPMl-8226. In words: NCI cancer cell line screen (sulforhodamin B). In kind it is cell-based. Conditions: Homo sapiens; RPMl-8226, Leukemia; 48 h; read-out: log10 GI50 (converted). The procedure:
as §1, §2

The test system of the next data set is HS 578T. The data set is described as follows: NCI cancer cell line screen (sulforhodamin B). The class given is cell-based. Conditions: Homo sapiens, Breast, 48 h, read-out: log10 GI50 (converted). Here is the method: as §1, §2
For the next data set, the system named is KM12. In words: NCI cancer cell line screen (sulforhodamin B). The class given is cell-based. Conditions: Homo sapiens; KM12, Colon; 48 h; read-out: log10 GI50 (converted). Here is the method:
as §1, §2

For another data set, the system named is RXF 393. In words: NCI cancer cell line screen (sulforhodamin B). Conditions: Homo sapiens; RXF 393, Renal; 48 h; read-out: log10 GI50 (converted). The class given is cell-based. The procedure: as §1, §2
A further data set has as its system NCI-H460. The data set is described as follows: NCI cancer cell line screen (sulforhodamin B). In kind it is cell-based. Conditions: Homo sapiens; NCI-H460, NSCL; 48 h; read-out: log10 GI50 (converted). Here is the method:
as §1, §2

A further data set has as its system U0-31. In words: NCI cancer cell line screen (sulforhodamin B). The class given is cell-based. Conditions: Homo sapiens; U0-31, Renal; 48 h; read-out: log10 GI50 (converted). The procedure: as §1, §2
For another data set, the system named is CAKl-1. The data set is described as follows: NCI cancer cell line screen (sulforhodamin B). In kind it is cell-based. Conditions: Homo sapiens; CAKl-1, Renal; 48 h; read-out: log10 GI50 (converted). The procedure: as §1, §2
Another data set has as its system SK-MEL-5. In words: NCI cancer cell line screen (sulforhodamin B). Conditions: Homo sapiens; SK-MEL-5, Melanoma; 48 h; read-out: log10 GI50 (converted). The class given is cell-based. Here is the method: as §1, §2
In the next data set the test system is HOP-62. The data set is described as follows: NCI cancer cell line screen (sulforhodamin B). In kind it is cell-based. Conditions: Homo sapiens; HOP-62, NSCL; 48 h; read-out: log10 GI50 (converted). The procedure:
as §1, §2

For a further data set, the system named is A498. The data set is described as follows: NCI cancer cell line screen (sulforhodamin B). In kind it is cell-based. Conditions: Homo sapiens; A498, Renal; 48 h; read-out: log10 GI50 (converted). Here is the method: as §1, §2
The subject of a further data set is DU-145. In words: NCI cancer cell line screen (sulforhodamin B). The class given is cell-based. Conditions: Homo sapiens; DU-145, Prostate; 48 h; read-out: log10 GI50 (converted). The procedure:
as §1, §2

The subject of the next data set is CCRF-CEM. In words: NCI cancer cell line screen (sulforhodamin B). In kind it is cell-based. Conditions: Homo sapiens, Leukemia, 48 h, read-out: log10 GI50 (converted). Here is the method: as §1, §2
The subject of the next data set is U251. In words: NCI cancer cell line screen (sulforhodamin B). In kind it is cell-based. Conditions: Homo sapiens, U-251; U251, CNS; 48 h; read-out: log10 GI50 (converted). Here is the method: as §1, §2

`O=C1CCCc2cc(-c3ccnc(Nc4ccccc4)n3)ccc2N1` [Compound 2a, 7-(2-Anilinopyrimidin-4-yl)-1,3,4,5-tetrahydro-2H-1-benzazepin-2-one]: the kinetic solubility (usually solubility judged after dilution from a stock solution rather than from solid) at 10 s in data set [1] was approximately 50 µM (≈ 16.5 µg/mL).

For `O=C1CCCc2cc(-c3ccnc(Nc4ccc(O)cc4)n3)ccc2N1` [Compound 2e, 7-[2-(4-Hydroxyanilino)pyrimidin-4-yl]-1,3,4,5-tetrahydro-2H-1-benzazepin-2-one], the GI50 – broadly, the concentration giving 50% growth inhibition – with 786-0 was 4.37 µM; in the data set with LOX IMVI it was 3.39 µM; with IGROV1, 2.51 µM; in the data set with SN12C, 6.17 µM; in the data set on PC-3, 4.9 µM; in the data set with RPMl-8226 it was 3.24 µM. Moreover, the GI50 with HS 578T was 4.9 µM; in the data set with KM12 it was 2.57 µM; with RXF 393, 1.86 µM; in the data set with NCI-H460 it was 3.16 µM; in the data set on U0-31, 1.74 µM; with CAKl-1 it was 4.17 µM. For the same compound, the GI50 was 3.09 µM in the data set with SK-MEL-5; 11 µM in the data set on HOP-62; 4.79 µM with A498; 3.39 µM with DU-145; 2.51 µM with CCRF-CEM; 6.03 µM in the data set with U251.

Turning to `COc1ccc(Nc2nccc(-c3ccc4c(c3)CCCC(=O)N4)n2)cc1O` [Compound 2n, 7-[2-(3-Hydroxy-4-methoxyanilino)pyrimidin-4-yl]-1,3,4,5-tetrahydro-2H-1-benzazepin-2-one], the GI50 was 4.57 µM with 786-0; 5.5 µM in the data set with LOX IMVI; 3.02 µM in the data set on IGROV1; 5.75 µM in the data set with SN12C; 12.6 µM in the data set with PC-3; 5.25 µM with RPMl-8226. The GI50 was 2.14 µM in the data set with HS 578T; 4.79 µM with KM12; 2.69 µM in the data set on RXF 393; 4.68 µM with NCI-H460; 3.02 µM in the data set on U0-31; 5.62 µM with CAKl-1. The 50% growth inhibitory concentration (GI50) with SK-MEL-5 is 10 µM; with HOP-62, 8.13 µM; in the data set on A498, 37.2 µM; in the data set with DU-145, 5.01 µM; with CCRF-CEM, 3.89 µM; in the data set on U251 it was 10.2 µM. Besides, the solubility (kinetic) at 10 s in [1] stood at 92.6 µM (≈ 34.9 µg/mL).
